Source: ChEMBL document CHEMBL2073776, “Interaction of structurally diverse pesticides with the human MDR1 gene product P-glycoprotein” (Toxicol Appl Pharmacol, 1996)

Assays:
Format in all cases: functional, cell-based
[1] = target: T1, ATP-dependent translocase ABCB1 (Homo sapiens, UniProt P08183); experiment: TP_TRANSPORTER: inhibition of Doxorubicin efflux (Doxorubicin: 50 uM, Chlorpyrifos: 250 uM) in MDR1-expressing B16/F10 cells; settings: mouse, b16-f10, 250 µM
[2] = target: T1, ATP-dependent translocase ABCB1; experiment: TP_TRANSPORTER: inhibition of Doxorubicin efflux (Doxorubicin: 50 uM, Chlorthiophos: 250 uM) in MDR1-expressing B16/F10 cells; settings: mouse, b16-f10, 250 µM
[3] = target: T1, ATP-dependent translocase ABCB1; experiment: TP_TRANSPORTER: inhibition of Doxorubicin efflux (Doxorubicin: 50 uM, Clotrimazole: 100 uM) in MDR1-expressing B16/F10 cells; settings: mouse, b16-f10, 100 µM
[4] = target: T2, MDR1 (ABCB1, ATP-dependent translocase) (Homo sapiens, UniProt P08183); experiment: TP_TRANSPORTER: inhibition of Doxorubicin efflux (Doxorubicin: 50 uM, Dicapthon: 250 uM) in MDR1-expressing B16/F10 cells; settings: mouse, probe Doxorubicin
T2 sequence (P08183 whole entry): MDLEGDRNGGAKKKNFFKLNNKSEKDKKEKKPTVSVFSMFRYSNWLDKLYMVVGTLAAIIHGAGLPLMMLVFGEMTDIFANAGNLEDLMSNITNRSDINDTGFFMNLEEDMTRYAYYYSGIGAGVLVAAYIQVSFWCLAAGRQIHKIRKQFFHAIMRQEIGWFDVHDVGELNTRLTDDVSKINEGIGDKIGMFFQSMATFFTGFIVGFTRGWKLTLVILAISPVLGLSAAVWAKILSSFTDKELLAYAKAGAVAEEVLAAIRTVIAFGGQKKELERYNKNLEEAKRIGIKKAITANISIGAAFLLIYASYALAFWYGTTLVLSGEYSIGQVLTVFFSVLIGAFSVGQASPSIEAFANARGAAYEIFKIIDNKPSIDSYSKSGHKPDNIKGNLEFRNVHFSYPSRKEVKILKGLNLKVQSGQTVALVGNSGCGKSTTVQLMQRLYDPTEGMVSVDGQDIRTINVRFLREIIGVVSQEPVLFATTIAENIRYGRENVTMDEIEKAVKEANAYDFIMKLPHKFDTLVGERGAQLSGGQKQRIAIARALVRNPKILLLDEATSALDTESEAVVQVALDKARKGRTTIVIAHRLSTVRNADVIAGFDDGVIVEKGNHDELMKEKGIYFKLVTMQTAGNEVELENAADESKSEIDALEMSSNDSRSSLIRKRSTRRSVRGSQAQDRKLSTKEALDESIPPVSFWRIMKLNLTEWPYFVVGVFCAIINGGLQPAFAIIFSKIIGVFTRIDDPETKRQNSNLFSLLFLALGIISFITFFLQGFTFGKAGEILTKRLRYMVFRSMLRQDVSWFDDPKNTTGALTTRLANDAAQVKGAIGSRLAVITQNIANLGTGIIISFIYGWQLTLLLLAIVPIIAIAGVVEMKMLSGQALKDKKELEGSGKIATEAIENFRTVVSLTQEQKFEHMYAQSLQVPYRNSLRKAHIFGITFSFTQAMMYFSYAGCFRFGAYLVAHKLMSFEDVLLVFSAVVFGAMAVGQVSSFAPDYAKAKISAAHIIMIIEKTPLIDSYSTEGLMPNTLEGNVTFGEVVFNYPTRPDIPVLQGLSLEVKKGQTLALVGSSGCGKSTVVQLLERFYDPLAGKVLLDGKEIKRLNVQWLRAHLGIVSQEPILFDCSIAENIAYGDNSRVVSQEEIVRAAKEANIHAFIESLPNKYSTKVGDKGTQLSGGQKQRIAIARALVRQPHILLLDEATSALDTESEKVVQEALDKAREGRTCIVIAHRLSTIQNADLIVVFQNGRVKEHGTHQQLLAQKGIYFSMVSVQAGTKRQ

[5] = target: T1, ATP-dependent translocase ABCB1; experiment: TP_TRANSPORTER: efflux in MDR1-expressing B16/F10 cells; settings: mouse
[6] = target: T2, MDR1 (ABCB1, ATP-dependent translocase); experiment: TP_TRANSPORTER: inhibition of Doxorubicin efflux (Doxorubicin: 50 uM, Endosulfan: 100 uM) in MDR1-expressing B16/F10 cells; settings: mouse, probe Doxorubicin
[7] = target: T1, ATP-dependent translocase ABCB1; experiment: TP_TRANSPORTER: inhibition of Doxorubicin efflux (Doxorubicin: 50 uM, Fluvalinate: 250 uM) in MDR1-expressing B16/F10 cells; settings: mouse, b16-f10, 250 µM
[8] = target: T2, MDR1 (ABCB1, ATP-dependent translocase); experiment: TP_TRANSPORTER: inhibition of Doxorubicin efflux (Doxorubicin: 50 uM, Heptachlor epoxide: 250 uM) in MDR1-expressing B16/F10 cells; settings: mouse, probe Doxorubicin
[9] = target: T2, MDR1 (ABCB1, ATP-dependent translocase); experiment: TP_TRANSPORTER: inhibition of Doxorubicin efflux (Doxorubicin: 50 uM, Heptachlor: 250 uM) in MDR1-expressing B16/F10 cells; settings: mouse, probe Doxorubicin
[10] = target: T2, MDR1 (ABCB1, ATP-dependent translocase); experiment: TP_TRANSPORTER: inhibition of Doxorubicin efflux (Doxorubicin: 50 uM, Hydramethylnon: 8 uM) in MDR1-expressing B16/F10 cells; settings: mouse, probe Doxorubicin
[11] = target: T2, MDR1 (ABCB1, ATP-dependent translocase); experiment: TP_TRANSPORTER: inhibition of Doxorubicin efflux (Doxorubicin: 50 uM, Chlordecone: 250 uM) in MDR1-expressing B16/F10 cells; settings: mouse, probe Doxorubicin
[12] = target: T1, ATP-dependent translocase ABCB1; experiment: TP_TRANSPORTER: inhibition of Doxorubicin efflux (Doxorubicin: 50 uM, […]: 250 uM) in MDR1-expressing B16/F10 cells; settings: mouse, b16-f10, 250 µM
[13] = target: T2, MDR1 (ABCB1, ATP-dependent translocase); experiment: TP_TRANSPORTER: inhibition of Doxorubicin efflux (Doxorubicin: 50 uM, Parathion: 250 uM) in MDR1-expressing B16/F10 cells; settings: mouse, probe Doxorubicin
[14] = target: T1, ATP-dependent translocase ABCB1; experiment: TP_TRANSPORTER: inhibition of Doxorubicin efflux (Doxorubicin: 50 uM, Phenamiphos: 250 uM) in MDR1-expressing B16/F10 cells; settings: mouse, b16-f10, 250 µM
[15] = target: T2, MDR1 (ABCB1, ATP-dependent translocase); experiment: TP_TRANSPORTER: inhibition of Doxorubicin efflux (Doxorubicin: 50 uM, Tetrachlorohydroquinone: 250 uM) in MDR1-expressing B16/F10 cells; settings: mouse, probe Doxorubicin

T1 sequence (P08183 whole entry): as above

## CCOP(=S)(OCC)Oc1nc(Cl)c(Cl)cc1Cl [CHLORPYRIFOS]
[1]
  Inhibition: inhibitor [51-80 % inhibition]

## CCOP(=S)(OCC)Oc1cc(Cl)c(SC)cc1Cl [CHLORTHIOPHOS]
[2]
  Inhibition: inhibitor [51-80 % inhibition]

## Clc1ccccc1C(c1ccccc1)(c1ccccc1)n1ccnc1 [CLOTRIMAZOLE]
[3]
  Inhibition: inhibitor [51-80 % inhibition]

## COP(=S)(OC)Oc1ccc([N+](=O)[O-])cc1Cl [DICAPTHON]
[4]
  inhibition at 250 µM: > 80%

## O=S1OCC2C(CO1)C1(Cl)C(Cl)=C(Cl)C2(Cl)C1(Cl)Cl (stereo not given) [ENDOSULFAN]
[5]
  Activity: substrate [+]
[6]
  inhibition at 100 µM: > 80%

## CC(C)[C@H](Nc1ccc(C(F)(F)F)cc1Cl)C(=O)OC(C#N)c1cccc(Oc2ccccc2)c1 (stereo not given in full) [FLUVALINATE]
[7]
  Inhibition: inhibitor [31-50 % inhibition]

## ClC1=C(Cl)C2(Cl)C3C4OC4C(Cl)C3C1(Cl)C2(Cl)Cl (stereo not given) [HEPTACHLOR EPOXIDE]
[8]
  inhibition at 250 µM: > 80%

## ClC1=C(Cl)C2(Cl)C3C(Cl)C=CC3C1(Cl)C2(Cl)Cl (stereo not given) [HEPTACHLOR]
[9]
  inhibition at 250 µM: > 80%

## CC1(C)CNC(=NN=C(/C=C/c2ccc(C(F)(F)F)cc2)/C=C/c2ccc(C(F)(F)F)cc2)NC1 [HYDRAMETHYLNON]
[10]
  inhibition at 8 µM: > 80%

## O=C1C2(Cl)C3(Cl)C4(Cl)C(Cl)(Cl)C5(Cl)C3(Cl)C1(Cl)C5(Cl)C24Cl (stereo not given) [KEPONE]
[11]
  inhibition at 250 µM: > 80%

## COP(=S)(Oc1cc(Cl)c(Br)cc1Cl)c1ccccc1 (stereo not given) [LEPTOPHOS]
[12]
  Inhibition: inhibitor [51-80 % inhibition]

## CCOP(=S)(OCC)Oc1ccc([N+](=O)[O-])cc1 [PARATHION]
[13]
  inhibition at 250 µM: > 80%

## CCOP(=O)(NC(C)C)Oc1ccc(SC)c(C)c1 (stereo not given) [PHENAMIPHOS]
[14]
  Inhibition: inhibitor [51-80 % inhibition]

## Oc1c(Cl)c(Cl)c(O)c(Cl)c1Cl [TETRACHLOROHYDROQUINONE]
[15]
  inhibition at 250 µM: > 80%
